Data published in patent publication US11076595B2, “1-(n,n-disubstituted carbamoyl) 4-(substituted sulfonyl)triazolin-5-one derivative, 4-(n,n-disubstituted carbamoyl) 1-(substituted sulfonyl)triazolin-5-one derivative, and herbicide containing said derivative as active ingredient” (HOKKO CHEMICAL INDUSTRY CO., LTD., priority 2017, dated 2021).

How the values were obtained:
Format in all cases: in vivo
[1] = tested on: Echinochloa crus-galli; assay: Test Example 1: herbicidal effect test by soil treatment in paddy field; details: 120 g/10a, paddy soil treatment just after sowing, 14 days after treatment
From the text: (§1) A Wagner pot having an area of 1/10000 are was filled with paddy field soil and after adding water, a chemical fertilizer (N:P:K=17:17:17) was mixed, followed by puddling. Thereafter, 30 grains of each of Echinochloa crus-galli, broad-leaved weed (Lindernia pyxidaria and Monochoria vaginalis) and Scirpus juncoides seeds were sown to a depth of 0 to 1 cm. Immediately after the sowing, the pot was flooded, and the depth of water was kept at about 3 cm. The pot was subsequently managed in a glass greenhouse. Just after that, an emulsifiable concentrate prepared according to Formulation Example 5 by using the compound shown in Table 5 below was diluted with water, and a predetermined amount of the water-diluted formulation was added dropwise. The application rate of the active ingredient, by conversion, corresponded to 120 g per 10 are.
(§2) This test was performed with two replications per one formulation concentration plot, and 14 days after the formulation treatments, the weed suppression rate (%) was determined according to the following equation (Math. 1). Weed suppression rate (%)=(1−an average dry weight (g) of plants in treated plots/an average dry weight (g) of plants in untreated plots)×100 [Math. 1]

[2] = tested on: Lindernia pyxidaria; assay: as above; details: 120 g/10a, paddy soil treatment just after sowing, 14 days after treatment
From the text: as §1, §2

[3] = tested on: Monochoria vaginalis; assay: as above; details: 120 g/10a, paddy soil treatment just after sowing, 14 days after treatment
From the text: as §1, §2

[4] = tested on: Scirpus juncoides; assay: as above; details: 120 g/10a, paddy soil treatment just after sowing, 14 days after treatment
From the text: as §1, §2

[5] = tested on: Echinochloa crus-galli; assay: Test Example 2: herbicidal effect test by treatment during growing period in paddy field; details: treatment 7 days after sowing, 120 g/10a, evaluated 14 days after treatment
Method: as §2
as §1, with “greenhouse. Seven days” for “greenhouse. Just”, “after sowing,” for “after that,”, “Table 6” for “Table 5”, “are. The test was performed with two replications per one formulation concentration plot, and 14 days after the formulation treatments, the weed suppression rate (%) was determined according to the equation (Math. 1).” for “are.”

[6] = tested on: Lindernia pyxidaria; assay: as above; details: treatment 7 days after sowing, 120 g/10a, evaluated 14 days after treatment
Method: as §2
as §1, with “greenhouse. Seven days” for “greenhouse. Just”, “after sowing,” for “after that,”, “Table 6” for “Table 5”, “are. The test was performed with two replications per one formulation concentration plot, and 14 days after the formulation treatments, the weed suppression rate (%) was determined according to the equation (Math. 1).” for “are.”

[7] = tested on: Monochoria vaginalis; assay: as above; details: treatment 7 days after sowing, 120 g/10a, evaluated 14 days after treatment
Method: as §2
as §1, with “greenhouse. Seven days” for “greenhouse. Just”, “after sowing,” for “after that,”, “Table 6” for “Table 5”, “are. The test was performed with two replications per one formulation concentration plot, and 14 days after the formulation treatments, the weed suppression rate (%) was determined according to the equation (Math. 1).” for “are.”

[8] = tested on: Scirpus juncoides; assay: as above; details: treatment 7 days after sowing, 120 g/10a, evaluated 14 days after treatment
Method: as §2
as §1, with “greenhouse. Seven days” for “greenhouse. Just”, “after sowing,” for “after that,”, “Table 6” for “Table 5”, “are. The test was performed with two replications per one formulation concentration plot, and 14 days after the formulation treatments, the weed suppression rate (%) was determined according to the equation (Math. 1).” for “are.”

[9] = tested on: Amaranthus viridis; assay: Test Example 4: herbicidal effect test by foliage treatment in upland field; details: upland field foliage treatment 7 days after sowing; 120 g/10a; evaluated 14 days after treatment
Method: as §2
(§3) A pot having a size of 36 cm^2 was filled with field soil (alluvial soil) and after uniformly mixing the soil of the surface layer of 1 cm with 20 grains of each weed seed of crabgrass, Echinochloa crus-galli, Chenopodium album and Amaranthus viridis, the surface layer was pressed lightly. Seven days after the sowing, an emulsifiable concentrate prepared according to Formulation Example 5 by using the compound shown in Table 8 below was diluted with water, and the water-diluted formulation was sprayed on the soil surface at a ratio of 100 liter per 10 are. The application rate of the active ingredient, by conversion, corresponded to 120 g per 10 are. Fourteen days after the formulation treatment, the herbicidal effect was evaluated by the same criteria as in Test Example 1.

[10] = tested on: Chenopodium album; assay: as above; details: upland field foliage treatment 7 days after sowing; 120 g/10a; evaluated 14 days after treatment
Method: as §2, §3

[11] = tested on: Echinochloa crus-galli; assay: as above; details: upland field foliage treatment 7 days after sowing; 120 g/10a; evaluated 14 days after treatment
Method: as §2, §3

[12] = tested on: crabgrass; assay: as above; details: upland field foliage treatment 7 days after sowing; 120 g/10a; evaluated 14 days after treatment
Method: as §2, §3

Cc1cc(N(C(=O)n2ncn(S(=O)(=O)C(C)C)c2=O)C(C)C)no1 [Compound 1-99]
weed suppression rate, Echinochloa crus-galli [1]: 60%
weed suppression rate, Lindemia pyxidaria [2]: 80%
weed suppression rate, Monochoria vaginalis [3]: 90%
weed suppression rate, Scirpus juncoides [4]: 50%
weed suppression rate, Echinochloa crus-galli [5]: 90%
weed suppression rate, Lindemia pyxidaria [6]: 80%
weed suppression rate, Monochoria vaginalis [7]: 80%
weed suppression rate, Scirpus juncoides [8]: 90%
herbicidal effect (weed suppression rate), Amaranthus viridis [9]: 90%
herbicidal effect (weed suppression rate), Chenopodium album [10]: 80%
herbicidal effect (weed suppression rate), Echinochloa crus-galli [11]: 80%
herbicidal effect (weed suppression rate), Crabgrass [12]: 90%

CC(C)N(C(=O)n1ncn(S(=O)(=O)C2CC2)c1=O)c1cccc(F)c1 [Compound 1-170]
weed suppression rate, Echinochloa crus-galli [1]: 90%
weed suppression rate, Lindemia pyxidaria [2]: 100%
weed suppression rate, Monochoria vaginalis [3]: 90%
weed suppression rate, Scirpus juncoides [4]: 90%
weed suppression rate, Echinochloa crus-galli [5]: 100%
weed suppression rate, Lindemia pyxidaria [6]: 90%
weed suppression rate, Monochoria vaginalis [7]: 90%
weed suppression rate, Scirpus juncoides [8]: 90%
herbicidal effect (weed suppression rate), Amaranthus viridis [9]: 90%
herbicidal effect (weed suppression rate), Chenopodium album [10]: 80%
herbicidal effect (weed suppression rate), Echinochloa crus-galli [11]: 80%
herbicidal effect (weed suppression rate), Crabgrass [12]: 90%

CC(C)N(C(=O)n1ncn(S(=O)(=O)C2CC2)c1=O)c1c(F)cc(F)cc1F [Compound 1-204]
weed suppression rate, Echinochloa crus-galli [1]: 100%
weed suppression rate, Lindemia pyxidaria [2]: 100%
weed suppression rate, Monochoria vaginalis [3]: 80%
weed suppression rate, Scirpus juncoides [4]: 100%
weed suppression rate, Echinochloa crus-galli [5]: 100%
weed suppression rate, Lindemia pyxidaria [6]: 80%
weed suppression rate, Monochoria vaginalis [7]: 100%
weed suppression rate, Scirpus juncoides [8]: 100%
herbicidal effect (weed suppression rate), Amaranthus viridis [9]: 80%
herbicidal effect (weed suppression rate), Chenopodium album [10]: 60%
herbicidal effect (weed suppression rate), Echinochloa crus-galli [11]: 100%
herbicidal effect (weed suppression rate), Crabgrass [12]: 100%

Cc1ccc(N(C(=O)n2ncn(S(=O)(=O)C3CCCCC3)c2=O)C(C)C)c(Cl)c1 [Compound 1-322]
weed suppression rate, Echinochloa crus-galli [1]: 90%
weed suppression rate, Lindemia pyxidaria [2]: 90%
weed suppression rate, Monochoria vaginalis [3]: 90%
weed suppression rate, Scirpus juncoides [4]: 90%
weed suppression rate, Echinochloa crus-galli [5]: 90%
weed suppression rate, Lindemia pyxidaria [6]: 80%
weed suppression rate, Monochoria vaginalis [7]: 80%
weed suppression rate, Scirpus juncoides [8]: 90%

CC(C)N(C(=O)n1ncn(S(=O)(=O)C2CCCCC2)c1=O)c1ccc(C(F)(F)F)cc1F [Compound 1-323]
weed suppression rate, Echinochloa crus-galli [1]: 100%
weed suppression rate, Lindemia pyxidaria [2]: 100%
weed suppression rate, Monochoria vaginalis [3]: 80%
weed suppression rate, Scirpus juncoides [4]: 100%
weed suppression rate, Echinochloa crus-galli [5]: 100%
weed suppression rate, Lindemia pyxidaria [6]: 70%
weed suppression rate, Monochoria vaginalis [7]: 70%
weed suppression rate, Scirpus juncoides [8]: 70%

CC(C)N(C(=O)n1ncn(S(=O)(=O)C2CCCCC2)c1=O)c1ccc(C#N)cc1Cl [Compound 1-328]
weed suppression rate, Echinochloa crus-galli [1]: 90%
weed suppression rate, Lindemia pyxidaria [2]: 80%
weed suppression rate, Monochoria vaginalis [3]: 80%
weed suppression rate, Scirpus juncoides [4]: 90%
weed suppression rate, Echinochloa crus-galli [5]: 90%
weed suppression rate, Lindemia pyxidaria [6]: 80%
weed suppression rate, Monochoria vaginalis [7]: 80%
weed suppression rate, Scirpus juncoides [8]: 90%

CC(C)N(C(=O)n1ncn(S(=O)(=O)C2CCCCC2)c1=O)c1ccc(Cl)nc1 [Compound 1-338]
weed suppression rate, Echinochloa crus-galli [1]: 100%
weed suppression rate, Lindemia pyxidaria [2]: 90%
weed suppression rate, Monochoria vaginalis [3]: 90%
weed suppression rate, Scirpus juncoides [4]: 100%
weed suppression rate, Echinochloa crus-galli [5]: 90%
weed suppression rate, Lindemia pyxidaria [6]: 80%
weed suppression rate, Monochoria vaginalis [7]: 80%
weed suppression rate, Scirpus juncoides [8]: 90%

Cc1ccc(S(=O)(=O)n2cnn(C(=O)N(c3ccc(Cl)nc3Cl)C(C)C)c2=O)cc1 [Compound 1-690]
weed suppression rate, Echinochloa crus-galli [1]: 100%
weed suppression rate, Lindemia pyxidaria [2]: 100%
weed suppression rate, Monochoria vaginalis [3]: 90%
weed suppression rate, Scirpus juncoides [4]: 90%
weed suppression rate, Echinochloa crus-galli [5]: 100%
weed suppression rate, Lindemia pyxidaria [6]: 90%
weed suppression rate, Monochoria vaginalis [7]: 90%
weed suppression rate, Scirpus juncoides [8]: 90%

Cc1cc(C)c(S(=O)(=O)n2cnn(C(=O)N(c3cccnc3F)C(C)C)c2=O)c(C)c1 [Compound 1-921]
weed suppression rate, Echinochloa crus-galli [1]: 90%
weed suppression rate, Lindemia pyxidaria [2]: 80%
weed suppression rate, Monochoria vaginalis [3]: 60%
weed suppression rate, Scirpus juncoides [4]: 70%
weed suppression rate, Echinochloa crus-galli [5]: 80%
weed suppression rate, Lindemia pyxidaria [6]: 80%
weed suppression rate, Monochoria vaginalis [7]: 60%
weed suppression rate, Scirpus juncoides [8]: 70%

CC(C)N(C(=O)n1ncn(S(=O)(=O)c2cccs2)c1=O)c1ccc(F)cc1 [Compound 1-1052]
weed suppression rate, Echinochloa crus-galli [1]: 90%
weed suppression rate, Lindemia pyxidaria [2]: 80%
weed suppression rate, Monochoria vaginalis [3]: 80%
weed suppression rate, Scirpus juncoides [4]: 90%
weed suppression rate, Echinochloa crus-galli [5]: 90%
weed suppression rate, Lindemia pyxidaria [6]: 80%
weed suppression rate, Monochoria vaginalis [7]: 80%
weed suppression rate, Scirpus juncoides [8]: 90%

CC(C)N(C(=O)n1ncn(S(=O)(=O)N(C)C)c1=O)c1ccccc1F [Compound 1-1093]
weed suppression rate, Echinochloa crus-galli [1]: 90%
weed suppression rate, Lindemia pyxidaria [2]: 80%
weed suppression rate, Monochoria vaginalis [3]: 80%
weed suppression rate, Scirpus juncoides [4]: 90%
weed suppression rate, Echinochloa crus-galli [5]: 90%
weed suppression rate, Lindemia pyxidaria [6]: 80%
weed suppression rate, Monochoria vaginalis [7]: 80%
weed suppression rate, Scirpus juncoides [8]: 90%

CC(C)N(C(=O)n1ncn(S(=O)(=O)N(C)C)c1=O)c1cccnc1F [Compound 1-1128]
weed suppression rate, Echinochloa crus-galli [1]: 90%
weed suppression rate, Lindemia pyxidaria [2]: 90%
weed suppression rate, Monochoria vaginalis [3]: 60%
weed suppression rate, Scirpus juncoides [4]: 70%
weed suppression rate, Echinochloa crus-galli [5]: 90%
weed suppression rate, Lindemia pyxidaria [6]: 90%
weed suppression rate, Monochoria vaginalis [7]: 60%
weed suppression rate, Scirpus juncoides [8]: 70%

CC(C)N(C(=O)n1ncn(S(=O)(=O)N(C)C)c1=O)c1ccc(F)nc1 [Compound 1-1129]
weed suppression rate, Echinochloa crus-galli [1]: 90%
weed suppression rate, Lindemia pyxidaria [2]: 80%
weed suppression rate, Monochoria vaginalis [3]: 80%
weed suppression rate, Scirpus juncoides [4]: 90%
weed suppression rate, Echinochloa crus-galli [5]: 90%
weed suppression rate, Lindemia pyxidaria [6]: 80%
weed suppression rate, Monochoria vaginalis [7]: 80%
weed suppression rate, Scirpus juncoides [8]: 90%

CC(C)N(C(=O)n1ncn(S(=O)(=O)N(C)C)c1=O)c1ccc(Cl)nc1 [Compound 1-1135]
weed suppression rate, Echinochloa crus-galli [1]: 90%
weed suppression rate, Lindemia pyxidaria [2]: 90%
weed suppression rate, Monochoria vaginalis [3]: 60%
weed suppression rate, Scirpus juncoides [4]: 90%
weed suppression rate, Echinochloa crus-galli [5]: 90%
weed suppression rate, Lindemia pyxidaria [6]: 60%
weed suppression rate, Monochoria vaginalis [7]: 70%
weed suppression rate, Scirpus juncoides [8]: 90%
